Measurements taken from publication PMC6066518, “Homology Modeling Informs Ligand Discovery for the Glutamine Transporter ASCT2” (Frontiers in Chemistry, 2018).

Target: T1, ASCT2 (Rattus norvegicus, UniProt D3ZJ25)
T1 construct: gene Slc1a5
T1 sequence (D3ZJ25 1-555): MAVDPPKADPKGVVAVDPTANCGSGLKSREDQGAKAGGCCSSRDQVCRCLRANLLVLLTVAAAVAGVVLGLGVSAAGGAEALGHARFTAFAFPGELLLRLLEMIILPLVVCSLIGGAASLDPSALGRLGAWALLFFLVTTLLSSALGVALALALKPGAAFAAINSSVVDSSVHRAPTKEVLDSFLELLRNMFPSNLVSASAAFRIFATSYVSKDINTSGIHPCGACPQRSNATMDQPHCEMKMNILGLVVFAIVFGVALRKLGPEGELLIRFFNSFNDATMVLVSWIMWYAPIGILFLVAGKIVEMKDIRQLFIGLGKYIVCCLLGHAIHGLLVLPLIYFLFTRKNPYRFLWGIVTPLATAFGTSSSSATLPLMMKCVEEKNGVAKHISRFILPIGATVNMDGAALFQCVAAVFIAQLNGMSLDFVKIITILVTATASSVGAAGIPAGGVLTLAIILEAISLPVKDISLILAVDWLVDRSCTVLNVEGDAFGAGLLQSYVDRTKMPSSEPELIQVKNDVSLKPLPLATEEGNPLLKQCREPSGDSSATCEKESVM
Assay: whole-cell current recording, inhibition of anion leak current in HEK293 cells expressing rat ASCT2
Type: cell-based

Cc1ccccc1C1(CNC(=O)NC(C(N)=O)c2ccccc2)CC1 (stereo not shown) [compound 10] gave an IC50 of 67 ± 17 µM.
